# From US20050118310A1, “Formulations of compounds derived from natural sources and their use with irradiation for food preservation” (priority 2001, published 2005)
# Marks after values point to notes of the source that are not given here.
# What was measured:
# [1] = system: S. typhi; assay: Effect of carvacrol concentration on survival of S. typhi in ground beef irradiated at 0.5 kGy; assay type: cell-based, Salmonella typhi (ATCC 19430); details: ground beef irradiated at 0.50 kGy; for Increase in Sensitivity: vs 0% carvacrol
# Excerpt: (§1) The irradiation treatments of ground beef samples for D10 determination was done using UC-15B irradiator (MDS-Nordion International Inc., Kanata, ON, Canada) equipped with a ^60Co source at a dose rate of 14.42 kGy/h). Irradiation doses used for D10 determination were ranged from 0.1 to 0.6 kGy for E. coli and from 0.50 to 2.0 kGy for S. typhi. Under frozen condition, the irradiation doses ranged from 0.1 to 0.7 kGy for E. coli and from 0.5 to 3.0 kGy for S. typhi. For the determination of the effect of various concentrations of carvacrol on the irradiation sensitivity, samples were irradiated at 0.25 kGy for E. coli and at 0.5 kGy for S. typhi. Irradiation doses used for D10 determination in chicken breast ranged from 0.1 to 0.7 kGy for E. coli and from 0.25 to 2.0 kGy for S. typhi. Samples were analysed immediately after irradiation to determine the microbial count.
# (§2) Samples were homogenised for 2 min in sterile peptone water (0.1%) using a Lab-blender 400 stomacher (Laboratory Equipment, London, UK). From this mixture, serial dilutions were prepared and appropriate ones were pour-plated in tryptic soy agar (TSA) (Difco, Laboratories, Detroit, Mich., USA) and incubated at 35° C., 24 hours for the numeration of E. coli and S. typhi.
# (§3) The effect of various concentrations of carvacrol in irradiated ground beef was evaluated in order to determine if lower concentrations of carvacrol could also increase the irradiation sensitivity of E. coli and S. typhi in ground beef. For these experiments, sterile ground beef was contaminated with either E. coli or S. typhi to a final concentration of 10^5 CFU/g. Various concentrations of carvacrol ranging from 0 to 2.0% were added to the ground beef samples and transferred in portions of 25 g each to sterile petri plates (60×15 nmu) then stored at 4° C. until irradiation treatment (approximately 15 h).
# [2] = system: E. coli; assay: Effect of carvacrol concentration on survival of E. coli in ground beef irradiated at 0.25 kGy; assay type: cell-based, Escherichia coli (ATCC 25922); details: for Increase in Sensitivity: vs 0% carvacrol
# Excerpt: as §1, §2, §3
structure (smiles),measurement,setting,value
"Cc1ccc(C(C)C)cc1O [Carvacrol, carvacrol]",Log CFU/g,[1]; carvacrol 0.50%,3.526 ± 0.061^b Log CFU/g
same,Increase in Sensitivity,[1]; carvacrol 0.50%,15.4%
same,Log CFU/g,[1]; carvacrol 1.00%,2.545 ± 0.112^d Log CFU/g
same,Increase in Sensitivity,[1]; carvacrol 1.00%,39.0%
same,Log CFU/g,[1]; carvacrol 1.75%,0.000 ± 0.000^g Log CFU/g
same,Increase in Sensitivity,[1]; carvacrol 1.75%,100%
same,Log CFU/g,[1]; carvacrol 2.00%,0.000 ± 0.000^g Log CFU/g
same,Increase in Sensitivity,[1]; carvacrol 2.00%,100%
same,Log CFU/g,[2]; carvacrol 0.2%,2.948 ± 0.088^b Log CFU/g
same,Increase in Sensitivity,[2]; carvacrol 0.2%,4.8%
same,Log CFU/g,[2]; carvacrol 0.4%,2.948 ± 0.068^b Log CFU/g
same,Increase in Sensitivity,[2]; carvacrol 0.4%,4.8%
same,Log CFU/g,[2]; carvacrol 0.6%,2.660 ± 0.037^c Log CFU/g
same,Increase in Sensitivity,[2]; carvacrol 0.6%,14.1%
same,Log CFU/g,[2]; carvacrol 0.8%,1.198 ± 0.065^d Log CFU/g
same,Increase in Sensitivity,[2]; carvacrol 0.8%,61.3%
same,Log CFU/g,[2]; carvacrol 1.0%,0.843 ± 0.000^e Log CFU/g
same,Increase in Sensitivity,[2]; carvacrol 1.0%,72.8%
same,Log CFU/g,[2]; carvacrol […],0.000 ± 0.000^f Log CFU/g
same,Increase in Sensitivity,[2]; carvacrol […],100%
